Measured values as given in patent publication US20240124503A1, “HETEROAROMATIC PHOSPHONIUM SALTS AND THEIR USE TREATING CANCER” (FLORATEK PHARMA S.A., priority 2021, published 2024).
Like-named read-outs stand apart in the source and are kept apart here.

Legend:
Format in all cases: cell-based
CH-17-0098 = assay: Cell viability, bile duct PDX CH-17-0098
Procedure: (§1) PDX-derived cell cultures were obtained from tumors explanted from mice and isolated by mechanical and enzymatic dissociation. […] Cells were harvested and seeded in 96-wells plates at a density of 1.25 to 5×10^3 cells/well for cytotoxicity assays. Cells were incubated 48 h at 37° C. prior to addition of test molecules and vehicle (DMSO, 0.1%) at desired final concentrations. Cell viability was assessed before drugs' addition (To) and 5 days after test molecules addition by measuring ATP cell content using CellTiter-Glo® Luminescent Cell Viability Assay (Promega) according to the manufacturer's instructions. Luciferase activity was measured on a luminometer (PerkinElmer® EnVision™). Each concentration of compounds was tested in triplicate.
(§2) Viability was calculated as a percentage of ATP value compared to vehicle treated controls.
(§3) For PDX primary cell cultures, the tumour tissue was washed with PBS containing antibiotic-antimycotic and non-tumour tissue and necrotic tumour tissues were separated. The tumour tissue was transferred to a new dish and cut into 1˜2 mm^3 fragments, resuspended in RPMI-1640 medium and centrifuged at 1,200 rpm for 6 min at room temperature. The pelleted material was resuspended with 15 mL of Tumour Cell Digestion Solution and incubated at 37° C. for 1 hour with agitation. […]

BR-05-0399 = assay: Cell viability, breast PDX BR-05-0399
Procedure: as §1, §2, §3

BR-05-0014E = assay: Cell viability, breast PDX BR-05-0014E
Procedure: as §1, §2, §3

HCT-116 = assay: Cell viability assay, HCT-116; conditions: colon carcinoma cell line HCT-116
Procedure: (§4) Antitumor activity of the compounds and doxorubicin as a positive control was assessed by using the CellTiter-Blue Cell Viability Assay (Promega, #G8082) or CellTiter-Glow® Luminescent Cell Viability assay (Promega #G7572) according to the manufacturer's instructions. The compounds were tested at 5 or 6 concentrations in half-log increments (highest concentration 30 μM or 100 μM) in duplicate or triplicate well conditions.
(§5) Tumor cells were grown at 37° C. in a humidified atmosphere with 5% CO2 in RPMI 1640 or DMEM medium, supplemented with 10% (v/v) fetal calf serum and 50 μg/ml gentamicin for up to 20 passages, and were passaged once or twice weekly. Cells were harvested using TrypLE or PBS buffer containing 1 mM EDTA, and the percentage of viable cells was determined using a CASY Model TI cell counter (OMNI Life Science). Cells were harvested from exponential phase cultures, counted and plated in 96 well flat-bottom microtiter plates at a cell density depending on the cell line's growth rate (4,000-20,000 cells/well depending on the cell line's growth rate, up to 60,000 for hematological cancer cell lines) in RPMI 1640 or DMEM medium supplemented with 10% (v/v) fetal calf serum and 50 μg/ml gentamicin (140 μl/well). […] Viability of cells was quantified by the CellTiter-Blue® cell viability assay (Promega G8081) or CellTiter-Glow® Luminescent Cell Viability assay (Promega #G7572). […]

LoVo = assay: Cell viability assay, LoVo; conditions: colon carcinoma cell line LoVo
Procedure: as §4, §5

HCT-15 = assay: Cell viability assay, HCT-15; conditions: colon carcinoma cell line HCT-15
Procedure: as §4, §5

KM-12 = assay: Cell viability assay, KM-12; conditions: colon carcinoma cell line KM-12
Procedure: as §4, §5

CO-04-0701 = assay: Cell viability, colon PDX CO-04-0701
Procedure: as §1, §2, §3

CO-04-0700 = assay: Cell viability, colon PDX CO-04-0700
Procedure: as §1, §2, §3

ES-06-0122 = assay: Cell viability, esophagus PDX ES-06-0122
Procedure: as §1, §2, §3

HN-13-0020 = assay: Cell viability, head and neck PDX HN-13-0020
Procedure: as §1, §2
(§6) For PDX primary cell cultures, the tumour tissue was washed with PBS containing antibiotic-antimycotic and non-tumour tissue and necrotic tumour tissues were separated. The tumour tissue was transferred to a new dish and cut into 1˜2 mm^3 fragments, resuspended in RPMI-1640 medium and centrifuged at 1,200 rpm for 6 min at room temperature. The pelleted material was resuspended with 15 mL of Tumour Cell Digestion Solution and incubated at 37° C. for 1 hour with agitation. Following further addition of media, centrifugation and passage through a 70 μm cell strainer, the homogenous cell mixture was layered onto 15 mL of Ficoll-Paque PLUS in a 50 mL conical tube and centrifuged for 15 min at 1,600 rpm. The interface cells were collected, washed with media, separated by centrifugation at 1,200 rpm. The cell pellet was resuspended in serum free media supplemented with growth factors. 10,000 cells/wells were plated in a 96 well plate and incubated at 37° C., 5% CO2, 95% air and 100% relative humidity overnight. The cytotoxicity assay was conducted as above.
(§7) Sigmoidal concentration-response curves were fitted to the data points (test-versus-control, T/C values) obtained for each tumor model using GraphPad prism 5.02 software.

KI-12-0062 = assay: Cell viability, kidney PDX KI-12-0062
Procedure: as §1, §2, §6, §7

HL-60 = assay: Cell viability assay, HL-60
Procedure: as §4
Tumor cells were grown at 37° C. in a humidified atmosphere with 5% CO2 in RPMI 1640 or DMEM medium, supplemented with 10% (v/v) fetal calf serum and 50 μg/ml gentamicin for up to 20 passages, and were passaged once or twice weekly. Cells were harvested using TrypLE or PBS buffer containing 1 mM EDTA, and the percentage of viable cells was determined using a CASY Model TI cell counter (OMNI Life Science). Cells were harvested from exponential phase cultures, counted and plated in 96 well flat-bottom microtiter plates at a cell density depending on the cell line's growth rate (4,000-20,000 cells/well depending on the cell line's growth rate, up to 60,000 for hematological cancer cell lines) in RPMI 1640 or DMEM medium supplemented with 10% (v/v) fetal calf serum and 50 μg/ml gentamicin (140 μl/well). Cultures were incubated at 37° C. and 5% CO2 in a humidified atmosphere. After 24 h, 10 μl of test compounds or control medium were added and left on the cells for another 72 h. Compounds were serially diluted in DMSO, transferred in cell culture medium, and added to the assay plates. The DMSO concentration was kept constant at <0.3% v/v across the assay plate. Viability of cells was quantified by the CellTiter-Blue® cell viability assay (Promega G8081) or CellTiter-Glow® Luminescent Cell Viability assay (Promega #G7572). Fluorescence (FU) was measured by using the EnSpire® multimode plate reader (Perkin Elmer) (excitation λ=570 nm, emission λ=600 nm) Luminescence was measured with a microplate luminometer (Promega or PerkinElmer). […]

LU-01-0010 = assay: Cell viability, lung PDX LU-01-0010
Procedure: as §1, §2, §3

LU-01-0004 = assay: Cell viability, lung PDX LU-01-0004
Procedure: as §1, §2, §3

LU-01-0025 = assay: Cell viability, lung PDX LU-01-0025
Procedure: as §1, §2, §3

LY-24-0340 = assay: Cell viability, lymphoma PDX LY-24-0340
Procedure: as §1, §2, §6, §7

OVCAR-3 = assay: Cell viability assay, OVCAR-3; conditions: ovarian carcinoma OVCAR-3
Procedure: as §4, §5

PC-07-0059 = assay: Cell viability, pancreatic PDX PC-07-0059
Procedure: as §1, §2, §3

[1] = head and neck PDX HN-13-0020, read-out: IC50
[2] = kidney PDX KI-12-0062, read-out: IC50
[3] = lymphoma PDX LY-24-0340, read-out: IC50

What does the source list for O=c1cc(-c2ccc(CCC[P+](c3ccccc3)(c3ccccc3)c3ccccc3)cc2)oc2c(O)c(O)ccc12 [SND200, (3-(4-(7,8-Dihydroxy-4-oxo-4H1-chromen-2-yl)phenyl)propyl)triphenylphosphonium bromide]?
IC50 (CH-17-0098): 7.5 µM; IC50 (BR-05-0399): 14.9 µM; IC50 (BR-05-0014E): 19 µM; IC50 (HCT-116): 1.48 µM; IC50 (LoVo): 0.64 µM; IC50 (HCT-15): 7.49 µM; IC50 (KM-12): 0.44 µM; IC50 (CO-04-0701): 15.1 µM; IC50 (CO-04-0700): 7.6 µM; IC50 (ES-06-0122): 8.8 µM; IC50 (HN-13-0020; [1]): 4.1 µM; IC50 (KI-12-0062; [2]): 14.5 µM; IC50 (HL-60; leukaemia cell line HL-60, read-out: IC50): 0.3 µM; IC50 (LU-01-0010): 10 µM; IC50 (LU-01-0004): 9.8 µM; IC50 (LU-01-0025): 4.9 µM; IC50 (LY-24-0340; [3]): 4 µM; IC50 (OVCAR-3): 1.6 µM; IC50 (PC-07-0059): 6.7 µM

What does the source list for COc1c(O)ccc2c(=O)c(O)c(-c3ccc(CCCC[P+](c4ccccc4)(c4ccccc4)c4ccccc4)cc3)oc12 [SND190, (4-(4-(3,7-Dihydroxy-8-methoxy-4-oxo-4H1-chromen-2-yl)phenyl)butyl)triphenylphosphonium bromide]?
IC50 (CH-17-0098): 4 µM; IC50 (BR-05-0399): 5.4 µM; IC50 (BR-05-0014E): 6.6 µM; IC50 (HCT-116; Homo sapiens): 0.81 µM; IC50 (LoVo; Homo sapiens): 2.49 µM; IC50 (HCT-15; Homo sapiens): 15 µM; IC50 (KM-12; Homo sapiens, KM12): 1.7 µM; IC50 (CO-04-0701): 14.7 µM; IC50 (CO-04-0700): 2.4 µM; IC50 (ES-06-0122): 6.5 µM; IC50 (HN-13-0020; [1]): 2.26 µM; IC50 (HN-13-0020; summary of Table 10, read-out: IC50, head and neck PDX growth): < 5 µM; IC50 (KI-12-0062; [2]): 15.1 µM; IC50 (KI-12-0062; text summary of Table 11 (kidney PDX), read-out: IC50, kidney PDX growth): < 20 µM; IC50 (HL-60; Homo sapiens, HL-60, summary of Table 12, read-out: IC50, leukaemia cell growth): < 1 µM; IC50 (HL-60; Homo sapiens, leukaemia cell line HL-60, read-out: IC50): 0.3 µM; IC50 (LU-01-0010): 1.1 µM; IC50 (LU-01-0004): 5.4 µM; IC50 (LU-01-0025): 0.6 µM; IC50 (LY-24-0340; Table 16, read-out: IC50, lymphoma PDX growth): < 5 µM; IC50 (LY-24-0340; [3]): 3.8 µM; IC50 (OVCAR-3; Homo sapiens): 3.81 µM; IC50 (PC-07-0059): 2.3 µM
